Assay results taken from ChEMBL document CHEMBL5532759, “Discovery of dibenzylbutane lignan LCA derivatives as potent anti-inflammatory agents” (RSC Med Chem, 2024).
Active and inactive are the calls of the source. The calls are words filed in the database; no cut-off is given here.

Assays:
[1] = Cytotoxicity against mouse RAW264.7 cells assessed as survival rate at 20 uM incubated for 24 hrs by CCK-8 assay relative to control (reference value: 100 %); type: toxicity, cell-based; details: read-out: Survival
[2] = system: RAW264.7; test: Antiinflammatory activity in LPS-induced mouse RAW264.7 cells assessed as inhibition of NO release at 20 uM preincubated for 4 hrs followed by LPS addition for 24 hrs by Griess reagent based assay relative to control (reference value: 100 %); type: functional; set-up: scale not given: the % may be the effect or the level left; details: time 28 hrs
[3] = system: RAW264.7; test: Antiinflammatory activity in LPS-induced mouse RAW264.7 cells assessed as inhibition of NO release preincubated for 4 hrs followed by LPS addition for 24 hrs by Griess reagent based assay; type: functional, cell-based; details: dose 2.5-20 µM, time 28.0 hrs
[4] = system: Mus musculus; test: Antiinflammatory activity against carrageenan-induced paw edema in ICR mouse assessed as reduction in paw thickness at 20 mg/kg, ip measured at 60 to 240 mins; type: functional, organism-based; details: time 60-240 min
[5] = system: Mus musculus; test: Antiinflammatory activity against carrageenan-induced paw edema in ICR mouse assessed as inhibition of paw swelling at 20 mg/kg, ip measured after 120 min; type: functional, organism-based
[6] = system: RAW264.7; test: Antiinflammatory activity in LPS-induced mouse RAW264.7 cells assessed as inhibition of IL-1beta secretion at 2.5 to 20 uM preincubated for 1 hr followed by LPS addition for 24 hrs by ELISA method; type: functional, cell-based; details: dose 2.5-20 µM, time 25.0 hrs
[7] = system: RAW264.7; test: Antiinflammatory activity in LPS-induced mouse RAW264.7 cells assessed as inhibition of IL-6 secretion at 2.5 to 20 uM preincubated for 1 hr followed by LPS addition for 24 hrs by ELISA method; type: functional, cell-based; details: dose 2.5-20 µM, time 25.0 hrs
[8] = system: RAW264.7; test: Antiinflammatory activity in LPS-induced mouse RAW264.7 cells assessed as inhibition of TNFalpha secretion at 2.5 to 20 uM preincubated for 1 hr followed by LPS addition for 24 hrs by ELISA method; type: functional, cell-based; details: dose 2.5-20 µM, time 25.0 hrs
[9] = system: RAW264.7; test: Antiinflammatory activity in LPS-induced mouse RAW264.7 cells assessed as reduction in IL-1beta mRNA level preincubated for 1 hr followed by LPS addition for 24 hrs by RT-qPCR analysis; type: functional, cell-based; details: dose 10-20 µM, time 25.0 hrs
[10] = system: RAW264.7; test: Antiinflammatory activity in LPS-induced mouse RAW264.7 cells assessed as reduction in IL-6 mRNA level preincubated for 1 hr followed by LPS addition for 24 hrs by RT-qPCR analysis; type: functional, cell-based; details: dose 10-20 µM, time 25.0 hrs
[11] = system: RAW264.7; test: Antiinflammatory activity in LPS-induced mouse RAW264.7 cells assessed as reduction in TNFalpha mRNA level incubated for 1 hr followed by LPS addition for 24 hrs by RT-qPCR analysis; type: functional, cell-based; details: dose 10-20 µM, time 25.0 hrs
[12] = system: RAW264.7; test: Inhibition of NF-kappaB signaling in LPS-induced mouse RAW264.7 cells assessed as reduction in IkBalpha degradation preincubated for 1 hr followed by LPS addition for 1 hr by Western blot analysis; type: cell-based; details: dose 10-20 µM, time 2.0 hrs
[13] = system: RAW264.7; test: Inhibition of NF-kB signaling in LPS-induced mouse RAW264.7 cells assessed as reduction in p65 phosphorylation preincubated for 1 hr followed by LPS addition for 1 hr by Western blot analysis; type: cell-based; details: dose 10-20 µM, time 2.0 hrs
[14] = system: RAW264.7; test: Inhibition of NF-kB p65 nuclear translocation from cytoplasm to nucleus in mouse RAW264.7 cells at 20 uM preincubated for 1 hr followed by LPS addition for 4 hrs by immunofluorescence assay; type: functional, cell-based; details: time 5.0 hrs
[15] = system: Mus musculus; test: Antiinflammatory activity against carrageenan-induced paw edema in ICR mouse assessed as reduction in paw thickness at 5 to 20 mg/kg, ip measured at 60 to 240 mins; type: functional, organism-based; details: dose 5-20 mg/kg, time 60-240 min
[16] = system: Mus musculus; test: Antiinflammatory activity against carrageenan-induced paw edema in ip dosed ICR mouse assessed as reduction in IL-1beta level by ELISA method; type: functional, organism-based; details: dose 5-20 mg/kg
[17] = system: Mus musculus; test: Antiinflammatory activity against carrageenan-induced paw edema in ip dosed ICR mouse assessed as reduction in IL-6 level by ELISA method; type: functional, organism-based; details: dose 5-20 mg/kg
[18] = system: Mus musculus; test: Antiinflammatory activity against carrageenan-induced paw edema in ip dosed ICR mouse assessed as reduction in TNF-alpha level by ELISA method; type: functional, organism-based; details: dose 5-20 mg/kg
[19] = system: Mus musculus; test: Antiinflammatory activity against carrageenan-induced paw edema in ICR mouse assessed as inhibition of paw swelling at 5 to 20 mg/kg, ip measured after 120 min; type: functional, organism-based; details: dose 5-20 mg/kg

SMILES | viability at 24 h, 20 µM [1] [%] | Activity [2] [%] | other results
COc1cc(C[C@H](C(=O)NCc2ccccc2F)[C@@H](Cc2cc(OC)c(O)c(OC)c2)C(=O)NCc2ccccc2F)cc(OC)c1O | 105 | 47.3 | 
COc1cc(C[C@H](C(=O)NCc2ccc(C)cc2)[C@@H](Cc2cc(OC)c(O)c(OC)c2)C(=O)NCc2ccc(C)cc2)cc(OC)c1O | 95.6 | 47 | 
COc1cc(C[C@H](C(=O)NCc2ccncc2F)[C@@H](Cc2cc(OC)c(O)c(OC)c2)C(=O)NCc2ccncc2F)cc(OC)c1O | 95.9 | 67.9 | 
COc1cc(C[C@H](C(=O)NCc2cccnc2OC)[C@@H](Cc2cc(OC)c(O)c(OC)c2)C(=O)NCc2cccnc2OC)cc(OC)c1O | 69.9 | 51.1 | 
C[C@@H]1C[C@H]2[C@@H]3CCC4=CC(=O)C=C[C@]4(C)[C@@]3(F)[C@@H](O)C[C@]2(C)[C@@]1(O)C(=O)CO [DEXAMETHASONE] | 94.8 | 45.9 | 
COc1ccc(CNC(=O)[C@@H](Cc2cc(OC)c(O)c(OC)c2)[C@@H](Cc2cc(OC)c(O)c(OC)c2)C(=O)NCc2ccc(OC)cc2OC)c(OC)c1 | 98.4 | 47.6 | 
COc1cc(C[C@H](C(=O)NCc2ccc(F)cc2)[C@@H](Cc2cc(OC)c(O)c(OC)c2)C(=O)NCc2ccc(F)cc2)cc(OC)c1O | 103 | 43.1 | 
COc1cc(C[C@H](C(=O)NCc2cc(C)ccn2)[C@@H](Cc2cc(OC)c(O)c(OC)c2)C(=O)NCc2cc(C)ccn2)cc(OC)c1O | 83 | 71.5 | 
COc1cccc(CNC(=O)[C@@H](Cc2cc(OC)c(O)c(OC)c2)[C@@H](Cc2cc(OC)c(O)c(OC)c2)C(=O)NCc2cccc(OC)c2)c1 | 100 | 44.2 | 
COc1cc(C[C@H](C(=O)NCc2ccc(F)cc2F)[C@@H](Cc2cc(OC)c(O)c(OC)c2)C(=O)NCc2ccc(F)cc2F)cc(OC)c1O | 97.5 | 46.5 | 
COc1cc(CNC(=O)[C@@H](Cc2cc(OC)c(O)c(OC)c2)[C@@H](Cc2cc(OC)c(O)c(OC)c2)C(=O)NCc2ccc(O)c(OC)c2)ccc1O | 96.6 | 49 | 
COc1cc(C[C@H](C(=O)NCc2ccc(S(C)(=O)=O)cc2)[C@@H](Cc2cc(OC)c(O)c(OC)c2)C(=O)NCc2ccc(S(C)(=O)=O)cc2)cc(OC)c1O | 70 | 63.1 | 
COc1cc(C[C@H](C(=O)NCc2ncccc2C)[C@@H](Cc2cc(OC)c(O)c(OC)c2)C(=O)NCc2ncccc2C)cc(OC)c1O | 85.1 | 66.3 | 
COc1cc(C[C@H](C(=O)NCc2cccc(C)n2)[C@@H](Cc2cc(OC)c(O)c(OC)c2)C(=O)NCc2cccc(C)n2)cc(OC)c1O | 93.3 | 44.7 | 
COc1cc(/C=C/C(=O)OC[C@H](Cc2cc(OC)c(O)c(OC)c2)[C@@H](COC(=O)/C=C/c2ccc(O)c(OC)c2)Cc2cc(OC)c(O)c(OC)c2)ccc1O | 82.2 | 29.5 | inhibition [3]: Dose-Dependent Effect; Activity [4]: Active; inhibition [5]: Active
COc1cc(C[C@H](C(=O)NCc2ccc(F)cn2)[C@@H](Cc2cc(OC)c(O)c(OC)c2)C(=O)NCc2ccc(F)cn2)cc(OC)c1O | 81.3 | 47.1 | 
COc1cc(C[C@H](C(=O)NCc2ccccc2)[C@@H](Cc2cc(OC)c(O)c(OC)c2)C(=O)NCc2ccccc2)cc(OC)c1O | 103 | 42.6 | 
COc1cc(C[C@H](C(=O)NCc2cccc(F)c2)[C@@H](Cc2cc(OC)c(O)c(OC)c2)C(=O)NCc2cccc(F)c2)cc(OC)c1O | 99.4 | 41.9 | 
COc1cc(C[C@H](C(=O)NCc2ccccn2)[C@@H](Cc2cc(OC)c(O)c(OC)c2)C(=O)NCc2ccccn2)cc(OC)c1O | 92.2 | 48.1 | 
COc1cc(C[C@H](C(=O)NCc2ccc(C(F)(F)F)cc2)[C@@H](Cc2cc(OC)c(O)c(OC)c2)C(=O)NCc2ccc(C(F)(F)F)cc2)cc(OC)c1O | 99.1 | 31.1 | Activity [3]: Dose-Dependent Effect; Activity [6]: Active; Activity [7]: Active; Activity [8]: Active; Activity [9]: Dose-Dependent Effect; Activity [10]: Dose-Dependent Effect; Activity [11]: Dose-Dependent Effect; inhibition [12]: Dose-Dependent Effect; inhibition [13]: Dose-Dependent Effect; inhibition [14]: Active; Activity [15]: Active; Activity [16]: Dose-Dependent Effect; Activity [17]: Dose-Dependent Effect; Activity [18]: Dose-Dependent Effect; inhibition [19]: Active
COc1cc(C[C@H](C(=O)NCc2ccncc2)[C@@H](Cc2cc(OC)c(O)c(OC)c2)C(=O)NCc2ccncc2)cc(OC)c1O | 69.5 | 46.5 | 
COc1cc(CNC(=O)[C@@H](Cc2cc(OC)c(O)c(OC)c2)[C@@H](Cc2cc(OC)c(O)c(OC)c2)C(=O)NCc2cc(OC)cc(OC)c2)cc(OC)c1 | 99.1 | 49.3 | 
COc1cc(C[C@H](C(=O)NCc2cccnc2C(F)(F)F)[C@@H](Cc2cc(OC)c(O)c(OC)c2)C(=O)NCc2cccnc2C(F)(F)F)cc(OC)c1O | 90.7 | 55.1 | 
COc1cc(C[C@H](C(=O)NCc2cc(F)cc(F)c2)[C@@H](Cc2cc(OC)c(O)c(OC)c2)C(=O)NCc2cc(F)cc(F)c2)cc(OC)c1O | 97.8 | 43.9 | 
COc1ccc(CNC(=O)[C@@H](Cc2cc(OC)c(O)c(OC)c2)[C@@H](Cc2cc(OC)c(O)c(OC)c2)C(=O)NCc2ccc(OC)cc2)cc1 | 99.9 | 45.9 | 
